Data published in patent US11707440B2 (priority 2017, dated 2023).

Legend:
[1] = tested on: subjects with MDD at imminent risk for suicide; test: Beck Hopelessness Scale (BHS), […]2001; type: in vivo, human; conditions: for BHS total score change, Diff. of LS Means (SE) minus placebo: ANCOVA LOCF
Excerpt: The BHS is a self-reported measure to assess one's level of negative expectations or pessimism regarding the future. It consists of 20 true-false items that examine the respondent's attitude over the past week by either endorsing a pessimistic statement or denying an optimistic statement. For every statement, each response is assigned a score of 0 or 1. The total BHS score is a sum of item responses and ranges from 0 to 20, with a higher score representing a higher level of hopelessness.

[2] = tested on: patients with treatment-resistant depression (TRD); test: CGI-S, Example 7; type: in vivo, human
Protocol: Overall illness severity was assessed on the Clinical Global Impression of Severity (CGI-S) scale (Guy, “ECDEU Assessment Manual for Psychopharmacology-Revised (DHEW Publ No ADM 76-338)”, Rockville, Md.: U.S. Department of Health, Education, and Welfare, Public Health Service, Alcohol, Drug Abuse, and Mental Health Administration, NIMH Psychopharmacology Research Branch, Division of Extramural Research Programs; 1976, pp 218-222). Participants assessed their severity of anxiety on the Generalized Anxiety Disorder 7-item (GADS-7) Scale (See, Tables 157 and 15). See, Spitzer, “A brief measure for assessing generalized anxiety disorder—the GAD-7”, Arch. Intern. Med., 2006, 166(10):1092-1097.

subjects with TRD [3] = conditions: human, in vivo, other: intranasal
Protocol: FIGS. 53 and 54 present means for blood pressure over time by treatment group in the maintenance phase.
Transient blood pressure increases peaked for the esketamine group at approximately 40 minutes post dose and returned closer to predose levels by 1.5 hours post dose.

glutamate NMDA receptor = conditions: in vitro; cited from earlier work
adult subjects with TRD = type: in vivo, human
Protocol: Blood pressure and pulse/heart rate measurements were assessed supine with a completely automated device. Manual techniques were used only if an automated device is not available. Blood pressure and pulse/heart rate measurements were preceded by at least 5 minutes of rest in a quiet setting without distractions (e.g., television, cell phones).
Transient blood pressure increases peaked for the esketamine group at approximately 40 minutes post dose and returned to normal range at 90 minutes. […] The maximum mean increase (across all dosing days) in diastolic BP were 8.1 in the esketamine group and 4.5 in the active comparator group. FIGS. 7 and 8 present the means for measured blood pressure over time by treatment group in the double-blind phase.

subjects with TRD [4] = type: in vivo, human; conditions: among the 76 subjects who discontinued intranasal esketamine
Excerpt: The efficacy and safety analyses are based on the full (IND) analysis set and the full (OP/MA) analysis set. The full (IND) analysis set is defined as all subjects who receive at least 1 dose of intranasal study medication or 1 dose of oral antidepressant in the open-label IND phase (for direct-entry and transferred-entry non-responder subjects). The full (OP/MA) analysis is defined as all subjects who receive at least 1 dose of intranasal study medication or 1 dose of oral antidepressant in the OP/MA phase. Safety variables include cognition function over time, treatment-emergent adverse events (TEAEs), including TEAEs of special interest, vital signs over time, Clinician-Administered Dissociative Symptom Scale (CADDS) over time, and Modified Observer's Assessment of Alertness/Sedation (MOAA/S) score≤3. Efficacy variables include the MADRS which consists of 10 items that cover all the core depressive symptoms: each item is scored from 0 (symptom is not present or is normal) to 6 (severe or continuous presence of the symptom). A total score (0 to 60) is calculated by summing the scores of all 10 items. A higher score represents a more severe condition.
Overall, 90.1% of subjects experienced at least one TEAE in the IND and OP/MA phases.

[5] = Pharmacokinetics of esketamine nasal spray, 14 Phase 1 studies (Example 10); conditions: human, plasma, inhaled or intranasal
Protocol: The data herein was assembled from 14 Phase 1 studies; each Phase 1 study was performed similarly to the study outlined in Example 9 in which the PK of esketamine was assessed.

[6] = Day 1(DB): 4H, LOCF, ITT analysis set
[7] = End Point(DB), LOCF, ITT analysis set
[8] = human, in vivo, other: intranasal

SMILES: CN[C@]1(c2ccccc2Cl)CCCCC1=O [Esketamine 84 mg]
- BHS total score, Median (Range) ([1]; Baseline(DB), predose Day 1, ITT analysis set): 17.0 (9; 20)
- BHS total score change, Diff. of LS Means (SE) minus placebo ([1]; Day 1(DB): 4H): −1.5 (1.47)
- BHS total score change from baseline, Mean (SD) [1, 6]: −4.1 (5.63)
- BHS total score change from baseline, Median (Range) [1, 6]: −2.0 (−16; 2)
- BHS total score, Median (Range) [1, 6]: 14.0 (0; 20)
- BHS total score change, Diff. of LS Means (SE) minus placebo ([1]; End Point(DB)): −2.3 (1.66)
- BHS total score change from baseline, Mean (SD) [1, 7]: −10.3 (5.51)
- BHS total score change from baseline, Median (Range) [1, 7]: −11.0 (−19; 0)
- BHS total score, Mean (SD) [1, 7]: 6.2 (5.96)
- BHS total score, Median (Range) [1, 7]: 4.0 (0; 20)

SMILES: CN[C@]1(c2ccccc2Cl)CCCCC1=O [esketamine, (S)-2-(2-chlorophenyl)-2-(methylamino)cyclohexanone]
- CGI-S Median Change ([2]; 28 mg, Period 1, first day to day 8): −1.0
- CGI-S Median ([2]; 28 mg, Period 1 end point): 4.0
- CGI-S Median Change ([2]; 28 mg, Period 2, first day to day 8 of period): −1.0
- CGI-S Median ([2]; 28 mg, Period 2 end point): 4.0
- CGI-S Median Change ([2]; 56 mg, Period 1, first day to day 8): −1.0
- CGI-S Median ([2]; 56 mg, Period 1 end point): 4.0
- CGI-S Median Change ([2]; 56 mg, Period 2, first day to day 8 of period): −1.0
- CGI-S Median ([2]; 56 mg, Period 2 endpoint): 5.0
- CGI-S Median Change ([2]; 84 mg, Period 1, first day to day 8): −0.5
- CGI-S Median ([2]; 84 mg, Period 1 end point): 4.0
- CGI-S Median Change ([2]; 84 mg, Period 2, first day to day 8 of period): −1.0
- CGI-S Median ([2]; 84 mg, Period 2 endpoint): 4.0
- Time of peak of transient blood pressure increases (subjects with TRD [3]): approximately 40 minutes post dose
- Time of return of blood pressure closer to predose levels (subjects with TRD [3]): ≤ 1.5 hours post dose
- Greater affinity for the glutamate NMDA receptor than R-ketamine (glutamate NMDA receptor): 3 to 4 fold
- Maximum mean increase in diastolic BP (across all dosing days) (adult subjects with TRD; double-blind phase): 8.1
- Time of peak of transient blood pressure increases (adult subjects with TRD; [8]): approximately 40 minutes post dose
- Time of return of blood pressure to normal range (adult subjects with TRD; [8]): 90 min
- Subjects with a discontinuation AE considered related (possibly, probably, or very likely) to esketamine (subjects with TRD [4]): 51 subjects
- AUC ([5]; 28 mg): 128 to 183 ng·h/mL
- AUC ([5]; 56 mg): 216 to 317 ng·h/mL
- AUC ([5]; 84 mg): 310 to 489 ng·h/mL
